Measured values: ChEMBL document CHEMBL1201862, “PubChem BioAssay data set” (2004)
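Tested at 5 concentrations; 48 h exposure; 96-well plates; endpoints linearly interpolated, else capped at highest concentration. At the GI50, growth is halved.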 Active and inactive are the calls of the source. Rule as the data show it: active = GI50 up to about 1.1 µM and inactive = higher. Where a SMILES comes first, the peptide text is derived from it. The star is where a group is joined. Boc = CC(C)(C)OC(=O)*; OBn = c1ccc(CO*)cc1

What was measured:
Experiment in all cases: growth of human tumour cells (NCI), 48 h
HT-29 = tested on: HT-29
CCRF-CEM = tested on: CCRF-CEM
MCF7 = tested on: MCF7
SNB-19 = tested on: SNB-19
RXF 393 = tested on: RXF 393
OVCAR-5 = tested on: OVCAR-5
CAKI-1 = tested on: CAKI-1
NCI-H460 = tested on: NCI-H460
SW-620 = tested on: SW-620
ACHN = tested on: ACHN
MOLT-4 = tested on: MOLT-4
NCI-H23 = tested on: NCI-H23
DU-145 = tested on: DU-145
OVCAR-3 = tested on: OVCAR-3
OVCAR-4 = tested on: OVCAR-4
K562 = tested on: K562
HCC 2998 = tested on: HCC 2998
SR = tested on: SR
UO-31 = tested on: UO-31

Q: How did the GI50 (HT-29) turn out when `COc1ccc2c(c1)O[C@@H]1C(O)Oc3cc(OC)c(OC)cc3[C@]1(O)C2=O` (some centres not stated) was run?
A: 89.9 µM (inactive)

Q: And the GI50 (CCRF-CEM)?
A: 38.9 µM (inactive)

Q: What about the GI50 (MCF7) of the same compound?
A: 55.1 µM (inactive)

Q: And the GI50 (SNB-19)?
A: > 100 µM (inactive)

Q: What about the GI50 (RXF 393) of the same compound?
A: > 100 µM (inactive)

Q: And the GI50 (OVCAR-5)?
A: > 100 µM (inactive)

Q: And the GI50 (CAKI-1)?
A: > 100 µM (inactive)

Q: What about the GI50 (NCI-H460) of the same compound?
A: 69 µM (inactive)

Q: And the GI50 (SW-620)?
A: 88.7 µM (inactive)

Q: And the GI50 (ACHN)?
A: > 100 µM (inactive)

Q: What about the GI50 (MOLT-4) of the same compound?
A: 36.6 µM (inactive)

Q: And the GI50 (NCI-H23)?
A: 3.44 µM (inactive)

Q: What about the GI50 (DU-145) of the same compound?
A: > 100 µM (inactive)

Q: And the GI50 (OVCAR-3)?
A: > 100 µM (inactive)

Q: What about the GI50 (OVCAR-4) of the same compound?
A: 35.1 µM (inactive)

Q: And the GI50 (K562)?
A: 42.9 µM (inactive)

Q: Which GI50 (HT-29) does the source give for `Cc1cc(OC(=O)Nc2ccc(Cl)cc2)ccc1C(=S)Nc1ccccc1` here?
A: 24.5 µM (inactive)

Q: And the GI50 (HCC 2998)?
A: 26.3 µM (inactive)

Q: And the GI50 (CCRF-CEM)?
A: 20.7 µM (inactive)

Q: And the GI50 (MCF7)?
A: 34.9 µM (inactive)

Q: And the GI50 (SNB-19)?
A: > 100 µM (inactive)

Q: What about the GI50 (OVCAR-5) of the same compound?
A: 57 µM (inactive)

Q: What about the GI50 (CAKI-1) of the same compound?
A: 31.8 µM (inactive)

Q: What about the GI50 (NCI-H460) of the same compound?
A: 18.5 µM (inactive)

Q: And the GI50 (SR)?
A: 64.3 µM (inactive)

Q: And the GI50 (SW-620)?
A: > 100 µM (inactive)

Q: And the GI50 (ACHN)?
A: 18.7 µM (inactive)

Q: What about the GI50 (UO-31) of the same compound?
A: 73.5 µM (inactive)

Q: And the GI50 (MOLT-4)?
A: 29.6 µM (inactive)

Q: What about the GI50 (OVCAR-3) of the same compound?
A: 50.6 µM (inactive)

Q: And the GI50 (OVCAR-4)?
A: 24.8 µM (inactive)

Q: And the GI50 (K562)?
A: 6.49 µM (inactive)

Q: Which GI50 (HT-29) does the source give for `COc1ccc(C(=O)N/N=C2\C(=O)c3c(C)cc(C)cc3CC2(C)C)cc1` here?
A: 18.4 µM (inactive)

Q: And the GI50 (CCRF-CEM)?
A: 24.3 µM (inactive)

Q: What about the GI50 (MCF7) of the same compound?
A: 16.6 µM (inactive)

Q: And the GI50 (SNB-19)?
A: 27.4 µM (inactive)

Q: What about the GI50 (RXF 393) of the same compound?
A: 16.6 µM (inactive)

Q: And the GI50 (OVCAR-5)?
A: 21 µM (inactive)

Q: What about the GI50 (CAKI-1) of the same compound?
A: 36 µM (inactive)

Q: What about the GI50 (NCI-H460) of the same compound?
A: 25.6 µM (inactive)

Q: And the GI50 (SR)?
A: 18.5 µM (inactive)

Q: And the GI50 (SW-620)?
A: 20.8 µM (inactive)

Q: What about the GI50 (ACHN) of the same compound?
A: 24.1 µM (inactive)

Q: What about the GI50 (MOLT-4) of the same compound?
A: 11.5 µM (inactive)

Q: What about the GI50 (NCI-H23) of the same compound?
A: 29.5 µM (inactive)

Q: And the GI50 (DU-145)?
A: 24.2 µM (inactive)

Q: What about the GI50 (OVCAR-3) of the same compound?
A: 15.6 µM (inactive)

Q: What about the GI50 (OVCAR-4) of the same compound?
A: 27 µM (inactive)

Q: What about the GI50 (K562) of the same compound?
A: 16.7 µM (inactive)

Q: Which GI50 (HT-29) does the source give for `COC(=O)C(Cc1ccccc1)NP(=O)(O)OCC1OC(n2cc(I)c(=O)[nH]c2=O)CC1O` (configuration not stated) here?
A: > 100 µM (inactive)

Q: What about the GI50 (CCRF-CEM) of the same compound?
A: > 100 µM (inactive)

Q: And the GI50 (MCF7)?
A: > 100 µM (inactive)

Q: And the GI50 (SNB-19)?
A: > 100 µM (inactive)

Q: What about the GI50 (CAKI-1) of the same compound?
A: > 100 µM (inactive)

Q: And the GI50 (NCI-H460)?
A: > 100 µM (inactive)

Q: And the GI50 (SR)?
A: > 100 µM (inactive)

Q: What about the GI50 (SW-620) of the same compound?
A: > 100 µM (inactive)

Q: And the GI50 (ACHN)?
A: > 100 µM (inactive)

Q: What about the GI50 (UO-31) of the same compound?
A: > 100 µM (inactive)

Q: And the GI50 (MOLT-4)?
A: > 100 µM (inactive)

Q: What about the GI50 (NCI-H23) of the same compound?
A: > 100 µM (inactive)

Q: And the GI50 (DU-145)?
A: > 100 µM (inactive)

Q: And the GI50 (OVCAR-3)?
A: > 100 µM (inactive)

Q: And the GI50 (OVCAR-4)?
A: > 100 µM (inactive)

Q: And the GI50 (K562)?
A: > 100 µM (inactive)

Q: What does the source list for `Cc1ccccc1NC(=O)Cc1csc(N/N=C2\NC(=O)/C(=C/c3cccc([N+](=O)[O-])c3)S2)n1`?
A: GI50 (HT-29): 34.7 µM (inactive); GI50 (HCC 2998): 14.3 µM (inactive); GI50 (MCF7): 41.8 µM (inactive); GI50 (SNB-19): 16.1 µM (inactive); GI50 (OVCAR-5): 22.6 µM (inactive); GI50 (CAKI-1): 19.7 µM (inactive); GI50 (NCI-H460): 15.6 µM (inactive); GI50 (SW-620): 40.6 µM (inactive); GI50 (ACHN): 15.6 µM (inactive); GI50 (UO-31): 13.1 µM (inactive); GI50 (MOLT-4): 23.9 µM (inactive); GI50 (NCI-H23): 19.1 µM (inactive); GI50 (DU-145): 36.1 µM (inactive); GI50 (OVCAR-3): 19.7 µM (inactive); GI50 (OVCAR-4): 20.6 µM (inactive)

Q: With `COc1cccc2c1C(=O)c1c(O)c3c(c(O)c1C2=O)C[C@H](O)C[C@@H]3OC1CC(N)C(O)C(C)O1` (some centres not stated) as the compound, how does the GI50 (HT-29) read?
A: 2.09 µM (inactive)

Q: And the GI50 (CCRF-CEM)?
A: 0.259 µM (active)

Q: What about the GI50 (MCF7) of the same compound?
A: < 0.01 µM (active)

Q: What about the GI50 (SNB-19) of the same compound?
A: 3.36 µM (inactive)

Q: And the GI50 (RXF 393)?
A: 6.58 µM (inactive)

Q: And the GI50 (OVCAR-5)?
A: 1.97 µM (inactive)

Q: And the GI50 (CAKI-1)?
A: 1.08 µM (active)

Q: And the GI50 (NCI-H460)?
A: < 0.01 µM (active)

Q: And the GI50 (SR)?
A: < 0.01 µM (active)

Q: And the GI50 (ACHN)?
A: 1.17 µM (inactive)

Q: What about the GI50 (UO-31) of the same compound?
A: 2.24 µM (inactive)

Q: And the GI50 (MOLT-4)?
A: < 0.01 µM (active)

Q: And the GI50 (NCI-H23)?
A: 1.06 µM (active)

Q: What about the GI50 (DU-145) of the same compound?
A: 1.76 µM (inactive)

Q: And the GI50 (OVCAR-3)?
A: 1.85 µM (inactive)

Q: What about the GI50 (OVCAR-4) of the same compound?
A: 4.36 µM (inactive)

Q: And the GI50 (K562)?
A: 1.79 µM (inactive)

Q: Which results are given for `CCCSc1ccc2[nH]c(/N=C/c3ccccc3)cc2c1`?
A: GI50 (HT-29): 22.3 µM (inactive); GI50 (CCRF-CEM): 13.5 µM (inactive); GI50 (RXF 393): 16.4 µM (inactive); GI50 (OVCAR-5): 40.1 µM (inactive); GI50 (CAKI-1): 19.4 µM (inactive); GI50 (SR): 3.51 µM (inactive); GI50 (SW-620): 23.1 µM (inactive); GI50 (ACHN): 31.2 µM (inactive); GI50 (UO-31): 30.3 µM (inactive); GI50 (MOLT-4): 13.7 µM (inactive); GI50 (NCI-H23): 41.7 µM (inactive); GI50 (DU-145): 30.5 µM (inactive); GI50 (OVCAR-3): 22.1 µM (inactive); GI50 (OVCAR-4): 16.8 µM (inactive); GI50 (K562): 8.34 µM (inactive)

Q: How did the GI50 (HT-29) turn out when `CC(C)CC(NC(=O)C(Cc1ccccc1)NC(=O)C(Cc1ccccc1)NC(=O)OC(C)(C)C)C(=O)OCc1ccccc1` (stereo not drawn) (Boc-Phe-Phe-Leu-OBn; configuration not given here) was run?
A: > 100 µM (inactive)

Q: What about the GI50 (CCRF-CEM) of the same compound?
A: > 100 µM (inactive)

Q: What about the GI50 (MCF7) of the same compound?
A: > 100 µM (inactive)

Q: And the GI50 (SNB-19)?
A: > 100 µM (inactive)

Q: What about the GI50 (RXF 393) of the same compound?
A: > 100 µM (inactive)

Q: And the GI50 (OVCAR-5)?
A: > 100 µM (inactive)

Q: What about the GI50 (CAKI-1) of the same compound?
A: > 100 µM (inactive)

Q: And the GI50 (SR)?
A: > 100 µM (inactive)

Q: And the GI50 (SW-620)?
A: > 100 µM (inactive)

Q: What about the GI50 (UO-31) of the same compound?
A: > 100 µM (inactive)

Q: And the GI50 (MOLT-4)?
A: > 100 µM (inactive)

Q: And the GI50 (NCI-H23)?
A: > 100 µM (inactive)

Q: What about the GI50 (DU-145) of the same compound?
A: > 100 µM (inactive)

Q: And the GI50 (OVCAR-3)?
A: > 100 µM (inactive)

Q: What about the GI50 (K562) of the same compound?
A: > 100 µM (inactive)
